Measurements from the supplement of paper PMC11208160.

Experiment: recombinant UMI read abundance after kanamycin selection (control-corrected) (log10(CPM+1)); higher = more efficient recombination; extreme values may be limits of the assay; sequences stand for … in AGTGCAGAGAAAATCGGCCAGTTTTCTCTGCCTGCAGTCCGCATGCCGTGGGACCCCTTGGGTTCTAACCTGTTGCCTAGATTTATGCAGCGGACTGCCTTTCTCCCAAAGTGATAAACCGG…AGGTTGGTTTCACT; site = the 11-nt donor
Procedure, shortened: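 In a pooled Escherichia coli screen for the IS621 bridge recombinase, donor and donor-binding-loop pairs were each placed with a 12-nt UMI on a plasmid bearing a promoterless kanamycin gene. This library was co-electroporated with a target plasmid encoding a fixed target and T7-inducible recombinase, and cells were plated either on IPTG (0.07 mM) plus kanamycin or without selection, in two replicates each. Recombinant UMIs were PCR-amplified across the donor–target junction and sequenced, and counts were converted to CPM, averaged over replicates, scaled by control-derived factors and reported as log10(CPM+1).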
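Also: IS621 bridge recombinase in Escherichia coli cells against a fixed T5 target plasmid.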

TAGCTAGCATGGACCGGTTTTCCCGGTAATCCGTATTTGAA (site AAGCTAGCTTT)
recombinant UMI read abundance (log10): 0.0472

TAGCTAGCATGGACCGGTTTTCCCGGTAATCCGTATTTGAA (site CAGCTAGCTTT)
recombinant UMI read abundance (log10): 0.178

TAGCTAGCATGGACCGGTTTTCCCGGTAATCCGTATTTGAA (site GAGCTAGCTTT)
recombinant UMI read abundance (log10): 0

TAGCTAGCATGGACCGGTTTTCCCGGTAATCCGTATTTGAA (site TAACTAGCTTT)
recombinant UMI read abundance (log10): 0.822

TAGCTAGCATGGACCGGTTTTCCCGGTAATCCGTATTTGAA (site TACCTAGCTTT)
recombinant UMI read abundance (log10): 0.015

TAGCTAGCATGGACCGGTTTTCCCGGTAATCCGTATTTGAA (site TAGATAGCTTT)
recombinant UMI read abundance (log10): 0.0135

TAGCTAGCATGGACCGGTTTTCCCGGTAATCCGTATTTGAA (site TAGCAAGCTTT)
recombinant UMI read abundance (log10): 0.00493

TAGCTAGCATGGACCGGTTTTCCCGGTAATCCGTATTTGAA (site TAGCCAGCTTT)
recombinant UMI read abundance (log10): 0.0109

TAGCTAGCATGGACCGGTTTTCCCGGTAATCCGTATTTGAA (site TAGCGAGCTTT)
recombinant UMI read abundance (log10): 0.0252

TAGCTAGCATGGACCGGTTTTCCCGGTAATCCGTATTTGAA (site TAGCTAACTTT)
recombinant UMI read abundance (log10): 0.0471

TAGCTAGCATGGACCGGTTTTCCCGGTAATCCGTATTTGAA (site TAGCTACCTTT)
recombinant UMI read abundance (log10): 0.0202

TAGCTAGCATGGACCGGTTTTCCCGGTAATCCGTATTTGAA (site TAGCTAGCTAT)
recombinant UMI read abundance (log10): 0.502

TAGCTAGCATGGACCGGTTTTCCCGGTAATCCGTATTTGAA (site TAGCTAGCTCT)
recombinant UMI read abundance (log10): 0.00536

TAGCTAGCATGGACCGGTTTTCCCGGTAATCCGTATTTGAA (site TAGCTAGCTGT)
recombinant UMI read abundance (log10): 1.28

TAGCTAGCATGGACCGGTTTTCCCGGTAATCCGTATTTGAA (site TAGCTAGCTTA)
recombinant UMI read abundance (log10): 0.00377

TAGCTAGCATGGACCGGTTTTCCCGGTAATCCGTATTTGAA (site TAGCTAGCTTC)
recombinant UMI read abundance (log10): 0.504

TAGCTAGCATGGACCGGTTTTCCCGGTAATCCGTATTTGAA (site TAGCTAGCTTG)
recombinant UMI read abundance (log10): 0.0037

TAGCTAGCATGGACCGGTTTTCCCGGTAATCCGTATTTGAA (site TAGCTAGCTTT)
recombinant UMI read abundance (log10): 0.858

TAGCTAGCATGGACCGGTTTTCCCGGTAATCCGTATTTGAA (site TAGCTATCTTT)
recombinant UMI read abundance (log10): 0.588

TAGCTAGCATGGACCGGTTTTCCCGGTAATCCGTATTTGAA (site TAGCTCGCTTT)
recombinant UMI read abundance (log10): 0.0026

TAGCTAGCATGGACCGGTTTTCCCGGTAATCCGTATTTGAA (site TAGCTGGCTTT)
recombinant UMI read abundance (log10): 0.0168

TAGCTAGCATGGACCGGTTTTCCCGGTAATCCGTATTTGAA (site TAGCTTGCTTT)
recombinant UMI read abundance (log10): 0.00961

TAGCTAGCATGGACCGGTTTTCCCGGTAATCCGTATTTGAA (site TAGGTAGCTTT)
recombinant UMI read abundance (log10): 0.0179

TAGCTAGCATGGACCGGTTTTCCCGGTAATCCGTATTTGAA (site TAGTTAGCTTT)
recombinant UMI read abundance (log10): 0.0249

TAGCTAGCATGGACCGGTTTTCCCGGTAATCCGTATTTGAA (site TATCTAGCTTT)
recombinant UMI read abundance (log10): 0.0236

TAGCTAGCATGGACCGGTTTTCCCGGTAATCCGTATTTGAA (site TCGCTAGCTTT)
recombinant UMI read abundance (log10): 0.00871

TAGCTAGCATGGACCGGTTTTCCCGGTAATCCGTATTTGAA (site TGGCTAGCTTT)
recombinant UMI read abundance (log10): 0.0087

TAGCTAGCATGGACCGGTTTTCCCGGTAATCCGTATTTGAA (site TTGCTAGCTTT)
recombinant UMI read abundance (log10): 0.00459

TAGCTGACATGGACCGGTTTTCCCGGTAATCCGTATTTGCG (site TAGCTGACTCG)
recombinant UMI read abundance (log10): 1.5

TAGGAATCATGGACCGGTTTTCCCGGTAATCCGTATTTGCA (site TAGGAATCTAG)
recombinant UMI read abundance (log10): 1.62

TAGGAATCATGGACCGGTTTTCCCGGTAATCCGTATTTGCA (site TAGGAATCTCG)
recombinant UMI read abundance (log10): 1.64

TAGGAATCATGGACCGGTTTTCCCGGTAATCCGTATTTGCA (site TAGGAATCTGG)
recombinant UMI read abundance (log10): 0.896

TAGGAATCATGGACCGGTTTTCCCGGTAATCCGTATTTGCA (site TAGGAATCTTG)
recombinant UMI read abundance (log10): 2.82

TAGGAATCATGGACCGGTTTTCCCGGTAATCCGTATTTGTG (site TAGGAATCTCA)
recombinant UMI read abundance (log10): 3.2

TAGGAATCATGGACCGGTTTTCCCGGTAATCCGTATTTGTG (site TAGGAATCTCC)
recombinant UMI read abundance (log10): 2.13

TAGGAATCATGGACCGGTTTTCCCGGTAATCCGTATTTGTG (site TAGGAATCTCG)
recombinant UMI read abundance (log10): 2.63

TAGGAATCATGGACCGGTTTTCCCGGTAATCCGTATTTGTG (site TAGGAATCTCT)
recombinant UMI read abundance (log10): 2.59

TAGGAGTCATGGACCGGTTTTCCCGGTAATCCGTATTTGCG (site TAGGAATCTCG)
recombinant UMI read abundance (log10): 3.12

TAGGAGTCATGGACCGGTTTTCCCGGTAATCCGTATTTGCG (site TAGGACTCTCG)
recombinant UMI read abundance (log10): 1.24

TAGGAGTCATGGACCGGTTTTCCCGGTAATCCGTATTTGCG (site TAGGAGTCTCG)
recombinant UMI read abundance (log10): 3.24

TAGGAGTCATGGACCGGTTTTCCCGGTAATCCGTATTTGCG (site TAGGATTCTCG)
recombinant UMI read abundance (log10): 0.951

TAGGCCGCATGGACCGGTTTTCCCGGTAATCCGTATTTGTG (site CCATTGACTTT)
recombinant UMI read abundance (log10): 0.00523

TAGGCTTCATGGACCGGTTTTCCCGGTAATCCGTATTTGGT (site TAGACTTCTAC)
recombinant UMI read abundance (log10): 0.0923

TAGGCTTCATGGACCGGTTTTCCCGGTAATCCGTATTTGGT (site TAGCCTTCTAC)
recombinant UMI read abundance (log10): 0.0146

TAGGCTTCATGGACCGGTTTTCCCGGTAATCCGTATTTGGT (site TAGGCTTCTAC)
recombinant UMI read abundance (log10): 1.54

TAGGCTTCATGGACCGGTTTTCCCGGTAATCCGTATTTGGT (site TAGTCTTCTAC)
recombinant UMI read abundance (log10): 0.0132

TAGGGAACATGGACCGGTTTTCCCGGTAATCCGTATTTGGC (site TAGGGAACTGC)
recombinant UMI read abundance (log10): 1.53

TAGGTTGCATGGACCGGTTTTCCCGGTAATCCGTATTTGTA (site TAGGTTGCTTA)
recombinant UMI read abundance (log10): 2.39

TAGTAACCATGGACCGGTTTTCCCGGTAATCCGTATTTGAG (site TAGTAACCTCT)
recombinant UMI read abundance (log10): 0.00753

TAGTGCCCATGGACCGGTTTTCCCGGTAATCCGTATTTGGC (site TAGTGCCCTGC)
recombinant UMI read abundance (log10): 0

TAGTGTTCATGGACCGGTTTTCCCGGTAATCCGTATTTGCA (site TAGTGTTCTTG)
recombinant UMI read abundance (log10): 2.49

TAGTTGGCATGGACCGGTTTTCCCGGTAATCCGTATTTGGG (site TAGTTGGCTCC)
recombinant UMI read abundance (log10): 0.0252

TATAAGCCATGGACCGGTTTTCCCGGTAATCCGTATTTGCC (site TATAAGCCTGG)
recombinant UMI read abundance (log10): 0

TATAGCGCATGGACCGGTTTTCCCGGTAATCCGTATTTGGC (site TATAGCGCTGC)
recombinant UMI read abundance (log10): 2.48

TATAGGCCATGGACCGGTTTTCCCGGTAATCCGTATTTGAG (site TATAGGCCTCT)
recombinant UMI read abundance (log10): 0.0191

TATCATTCATGGACCGGTTTTCCCGGTAATCCGTATTTGGG (site TATCATTCTCC)
recombinant UMI read abundance (log10): 0.00534

TATCCGTCATGGACCGGTTTTCCCGGTAATCCGTATTTGAA (site TATCCGTCTTT)
recombinant UMI read abundance (log10): 0.0803
